Test results as given in ChEMBL document CHEMBL1144345, “Discovery of cell-permeable non-peptide inhibitors of beta-secretase by high-throughput docking and continuum electrostatics calculations” (J Med Chem, 2005).

Columns and labels:
[1] = Cytotoxic concentration against human and other tumor cell lines; format: functional
Beta-secretase (BACE) = Beta-secretase (BACE) (Homo sapiens, UniProt Q9Y5Z0+P56817); experiment: Beta-secretase inhibitory activity as inhibition of secreted alkaline phosphatase in HEK293 cells expressing SEAP-APP fusion protein; format: functional, cell-based
[2] = Effective concentration against Abeta(sw) peptide; format: functional

EC50 (Beta-secretase (BACE)) [µM]	EC50 [2] [µM]	Structure (SMILES)	CC50 [1] [µM]
27	3.2	COCCCNC(=O)c1cc(NC(=O)Nc2cc(C(F)(F)F)cc(C(F)(F)F)c2)ccc1N(C)C	24.6
	2.6	CCSc1nsc(NC(=O)Nc2cccc(C(C)=O)c2)n1	23.3
	2.6	CCOCCCNC(=O)c1cc(NC(=O)Nc2cccc(Cl)c2)ccc1N(C)C	11.1
	3	CN(C)c1ccc(NC(=O)Nc2cc(C(F)(F)F)cc(C(F)(F)F)c2)cc1C(=O)NCCCN1CCOCC1	12.5
